Earlier results in patent US7998474B2, “Methods for treating an inflammatory disease of the bowel” (Rowett Research Institute, priority 2001, dated 2011).

Test system: Clostridium perfringens serotype A
Details: mouse, in vivo; cited from earlier work

Bacteroides thetaiotaomicron [BT]
Resistance of ex-germ free mice to infection by Clostridium perfringens serotype A: did not however increase the resistance
